Legend:
[1] = system: HeLa cells; test: Optical detection of changes in plasma membrane conductance induced by streptolysin-O (fast-VSD, electric current pulses, internal control); format: cell-based; conditions: increasing streptolysin-O concentration (50, 100 and 150 units), hyperpolarising and depolarising responses
Experimental: (§1) Before the experiment, cells were washed with a Krebs-Ringer's solution buffered with HEPES (KRH; in mM: 150 NaCl, 5 KCl, 1.2 MgSO4, 1.2 KH2PO4, 2 CaCl2, 10 glucose, and 10 HEPES, pH 7.4) and incubated with […] di-4-ANEPPS, a fast-VSD (Invitrogen).
(§2) Conductance changes were monitored by measuring the change in fluorescence induced by electric current pulses, quantified as the difference between the mean of plateau values (either positive or negative, depending on the type of stimulus and geometry of the cell) and the mean of pre-stimulation values divided by the mean of pre-stimulation values, ΔF %. As detailed above, normalisation for the values prevailing before stimulation provided a correction for dye bleaching during the experiment, so that fluorescence changes produced by additional stimuli could be compared. […]
(§3) The responsivity to the molecule active on membrane permeability was determined according to two different protocols: • Estimation of conductance with internal control (responses, before and after exposure to the experimental treatment, measured on the same pixels). […]
(§4) Afterward, membrane potential changes evoked by current pulses of fixed intensity were calculated within the same subcellular regions identified by the functional mask after exposure to the experimental treatment. […]

[2] = system: HeLa cells; test: Optical detection of changes in membrane conductance induced by aspecific permeabilization (fast-VSD, electric current pulses, internal control); format: cell-based; conditions: measures up to four minutes after administration, conductance normalised to value at t=0
Experimental: as §1, §2, §3, §4

Substance	Fast-VSD fluorescence variation during unipolar square pulse [1]	effect on membrane conductance ([2]; 0.05% volume)	effect on membrane conductance ([2]; 0.5% volume)
streptolysin-O: bacterial protein able to insert into the eukaryotic plasma membrane where it forms a non selective ionic channel	clear reduction in the fluorescence variation		
triton X-100		negligible effect	marked drop

Reference: patent US9274100B2, “Method for optical measuring variations of cell membrane conductance” (OSPEDALE SAN RAFFAELE S.R.L., priority 2009, dated 2016)
